Experimental data from ChEMBL document CHEMBL1135490, “Naphthalene dicarboxaldehyde as an electrophilic fluorogenic moiety for affinity labeling: application to opioid receptor affinity labels with greatly improved fluorogenic properties” (J Med Chem, 2002).

Target: Mu-type opioid receptor (Homo sapiens, UniProt P35372)
Experiment: Inhibition of [3H]- diprenorphine binding on Opioid receptor mu 1 expressed in human embryonic kidney (HEK) cells
Type: cell-based

Chain of Mu-type opioid receptor (P35372 whole entry): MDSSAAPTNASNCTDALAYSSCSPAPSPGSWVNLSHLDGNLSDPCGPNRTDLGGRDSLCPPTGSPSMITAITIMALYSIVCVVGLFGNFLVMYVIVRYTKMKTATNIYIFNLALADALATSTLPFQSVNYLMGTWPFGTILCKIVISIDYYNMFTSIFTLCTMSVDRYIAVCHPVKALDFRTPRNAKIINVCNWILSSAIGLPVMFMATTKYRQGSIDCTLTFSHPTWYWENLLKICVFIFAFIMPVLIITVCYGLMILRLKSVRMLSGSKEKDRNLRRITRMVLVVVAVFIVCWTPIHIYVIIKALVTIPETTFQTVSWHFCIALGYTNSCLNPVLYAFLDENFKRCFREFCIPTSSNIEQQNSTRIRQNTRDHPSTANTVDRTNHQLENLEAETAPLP

SMILES: O=Cc1cc2ccc(C(=O)N[C@@H]3CC[C@@]4(O)C5Cc6ccc(O)c7c6[C@@]4(CCN5CC4CC4)[C@H]3O7)cc2cc1C=O
- Ki: 0.744 nM
